For one assay, the system named is cortical cell cultures. The experiment in a line: in vitro assay of NAALADase inhibitors on ischemia in cortical cell cultures. In kind it is cell-based. The conditions noted are these: concentration required to cause a 50% reduction in glutamate toxicity following an ischemic insult (potassium cyanide and 2-deoxyglucose). The source says:
Some results are set forth in U.S. Pat. Nos. 5,672,592, 5,795,877, 5,863,536, 5,880,112 and 5,902,817, allowed U.S. patent application Ser. Nos. 08/825,997, 08/833,628, 08/842,360 and 08/899,319 for which the issue fees have been paid, the entire contents of which patents and applications are herein incorporated by reference. Other results are provided below in TABLE III.

Assay [1] is described as follows: Example 14: each of the Examples and in vitro and in vivo assays described above. The following applies: each of their respective assays and Examples.
Another assay has as its system rat MCAO model of stroke. The experiment in a line: in vivo assay on brain injury following MCAO. Details: species or system Sprague-Dawley rats. The following applies: for % Protect: TABLE IV(b), 120 minutes post MCAO. The procedure:
The control group received Hepes buffered saline.
Four drug treated groups received Compound 1. For each rat, the treatment was initiated at 60 minutes post middle cerebral artery occlusion (MCAO) by an IV bolus injection which was immediately followed by IV infusion for 4 hours at rate of 0.5 ml/hr. Group 1 (n=9) received a dose of 100 mg/kg IV bolus followed by 20 mg/kg/hr IV infusion for 4 hours. Group 2 (n=11) received a dose of 30 mg/kg IV bolus followed by 6 mg/kg/hr IV infusion for 4 hours. Group 3 (n=9) received a dose of 10 mg/kg IV bolus followed by 2 mg/kg/hr IV infusion for 4 hours. Group 3 rats were also treated at 120 minutes, 180 minutes and 360 minutes post-occlusion. Group 4 (n=8) received a dose of 3 mg/kg IV bolus followed by […] IV infusion for 4 hours.
Two additional drug treated groups received 2-(3-sulfanylpropyl)pentanedioic acid. For each rat, the treatment was initiated at 120 minutes post middle cerebral artery occlusion (MCAO) by an IV bolus injection which was immediately followed by IV infusion for 4 hours at rate of 0.5 ml/hr. Group 5 received a dose of 30 mg/kg IV bolus followed by 6 mg/kg/hr IV infusion for 4 hours. Group 6 received a dose of 10 mg/kg IV bolus followed by 2 mg/kg/hr IV infusion.
Twenty two hours following the reperfusion, the rats were euthanized and their brains were removed. Seven coronal sections (2 mm thick) were taken and stained with 1% solution of 2,3,5-triphenyl-tetraxolium chloride (TTC) for 20 minutes and then fixed in 10% formalin. The anterior and posterior surface of the most rostral brain section and the posterior surface of each of the remaining 6 sections were imaged. The quantification of infarct size of each brain was obtained using a computer aided-digital imaging analysis system (LOATS). The brain regions completely lacking TTC-staining were characterized as representative of infarcted tissue. The total infarct volume for each rat was calculated by numeric integration of the respective sequential brain areas.
Male Sprague-Dawley rats (260-320 g) were used. They were individually housed and allowed free access to food and water. Two days prior to the experiment, they were given restricted food if necessary to maintain the body weight Each rat received two surgeries: femoral vein cannulation for IV infusion and MCAO. During surgeries, the rat was anesthetized with 1.5% halothane delivered in oxygen via an inhalation mask. The body temperature was monitored and regulated at normothermic level using a homeothermic heating system. First, a catheter was inserted into the left femoral vein. Thirty minutes later, the rat was reanesthetized for MCAO surgery. The MCAO was achieved using the endovascular suture method described by Long et al., Stroke, Vol. 20, pp. 84-91 (1989). Specifically, the right external carotid artery (ECA) was exposed, coagulated and transected. A 3-0 monofilament nylon suture with a blunted tip and a coat of 0.05% Poly-1-Lysine was introduced into the proximal stump of the ECA via an arteriotomy. It was advanced 22 mm from the carotid bifurcation until it lodged in the proximal region of the anterior cerebral artery, thereby occluding the origin of the MCA. The rats were allowed to wake up; 2 hours later, the rats were reanesthetized for reperfusion, during which the nylon suture was retracted to the stump of the ECA allowing blood recirculation to the MCA.

In a further assay the test system is LNCaP cells. The following applies: as the concentration increased; cited from earlier work.

In general, EC50 refers to the concentration at which the effect is half-maximal. Higher therefore signals a need for much substance. Regarding `O=C(O)CCC(CP(=O)(O)C(NCc1ccccc1)c1ccccc1)C(=O)O` (stereo not shown), a half-maximal effect in the assay with cortical cell cultures (EC50) was put at 1 nM. Take `O=C(O)CCC(CP(=O)(O)CNCc1ccccc1)C(=O)O` (stereo not shown): in the assay with cortical cell cultures, the 50% effective concentration (EC50) was 0.9 nM.

Turning to `O=C(O)CCC(CP(=O)(O)CN1C(=O)c2ccccc2C1=O)C(=O)O` (stereo not shown), the concentration for a half-maximal effect (EC50) in the assay on cortical cell cultures came out at 13 nM. The same measure, in the same setting: to `O=C(O)CCC(CP(=O)(O)CNc1ccccc1)C(=O)O` (stereo not shown) belongs 12 nM; to `O=C(O)CCC(CP(=O)(O)CNS(=O)(=O)c1ccccc1)C(=O)O` (stereo not shown), 792 nM. Still for that read-out and setting: to `O=C(O)CCC(CP(=O)(O)CNc1ccc(F)cc1)C(=O)O` (stereo not shown) belongs 3 nM.

For `COc1ccc(NCP(=O)(O)CC(CCC(=O)O)C(=O)O)cc1` (stereo not shown), in the assay with cortical cell cultures, it took 10 nM to reach a half-maximal effect (EC50).

Consider `Cc1ccc(NCP(=O)(O)CC(CCC(=O)O)C(=O)O)cc1` (stereo not shown), for which the 50% effective concentration (EC50) in the assay on cortical cell cultures amounted to 11 nM. As for `CC(C)(C)c1ccc(NCP(=O)(O)CC(CCC(=O)O)C(=O)O)cc1` (stereo not shown), in the assay on cortical cell cultures, the concentration giving a half-maximal response (EC50) came out at 35 nM. Still for that read-out and setting: with `O=C(O)CCC(CP(=O)(O)CC(CCC(=O)OCc1ccccc1)C(=O)OCc1ccccc1)C(=O)O` (stereo not shown) the figure was 0.01 nM; with `O=C(O)CCC(CP(=O)(O)CC(CCC(=O)O)C(=O)O)C(=O)O` (stereo not shown), 0.04 nM. Regarding `CCC(CS)C(CCC(=O)O)C(=O)O` (stereo not shown) [2-(1-ethyl-2-sulfanylethyl)pentanedioic acid], the 50% effective concentration (EC50) in the assay on cortical cell cultures turned out to be 62 nM. `CC(CS)C(CCC(=O)O)C(=O)O` (stereo not shown) [2-(1-methyl-2-sulfanylethyl)pentanedioic acid] showed a 50% effective concentration (EC50) in the assay with cortical cell cultures of 141 nM. Same read-out and setting: to `O=C(O)CCC(CC(S)c1ccccc1)C(=O)O` (stereo not shown) [2-(2-phenyl-2-sulfanylethyl)pentanedioic acid] belongs 29 nM. Compound `CCCCC(S)CC(CCC(=O)O)C(=O)O` (stereo not shown) [2-(2-sulfanylhexyl)pentanedioic acid] yielded an EC50 in the assay with cortical cell cultures of 1000 nM. With `CC(S)CC(CCC(=O)O)C(=O)O` (stereo not shown) [2-(2-sulfanylpropyl)pentanedioic acid], in assay [1], the “in vitro or in vivo activity” value was “exhibit in vitro or in vivo activity”. In turn, `CC(CS)CC(CCC(=O)O)C(=O)O` (stereo not shown) [2-(3-sulfanyl-2-methylpropyl)pentanedioic acid] returned an EC50 in the assay on cortical cell cultures of 80 nM. `O=C(O)CCC(CCCS)C(=O)O` (stereo not shown) [2-(3-sulfanylpropyl)pentanedioic acid]: a half-maximal effect in the assay with cortical cell cultures (EC50) was put at 13 nM. Besides, the “infarct size vs. vehicle treated rats” value with rat MCAO model of stroke (30 mg/kg IV bolus + 6 mg/kg/hr IV infusion 4 hours, 120 minutes post-occlusion) is on record as “significantly smaller infarct size”. Moreover, the entries for the “% Protect” value in the assay with rat MCAO model of stroke (dose 10 mg/kg) and in the assay with rat MCAO model of stroke (dose 30 mg/kg) were 21% and 52%, respectively. Besides, the “in vitro or in vivo activity” value in assay [1] is recorded as “exhibit in vitro or in vivo activity”. `O=C(O)CCC(CCCCS)C(=O)O` (stereo not shown) [2-(4-sulfanylbutyl)pentanedioic acid] returned an EC50 with cortical cell cultures of 36 nM.

In the assay on cortical cell cultures, `O=C(O)CCC(CCSSCCC(CCC(=O)O)C(=O)O)C(=O)O` (stereo not shown) [2-[2-[(3,5-dicarboxypentyl)dithio]ethyl]pentanedioic acid] displayed an EC50 of 17 nM.

For the compound `N[C@@H](Cn1oc(=O)[nH]c1=O)C(=O)O` [quisqualic acid, reference compound], the LNCaP cell proliferation entry in the assay with LNCaP cells is “decreased significantly”.

Source of the values: US20030083374A1, “NAALADase inhibitors useful as pharmaceutical compounds and compositions” (priority 1998, published 2003).
